Results on 1 substance are retold here after PMC11667234, “CD63 as novel target for nanoemulsion-based ^19F MRI imaging and drug delivery to activated cardiac fibroblasts” (Theranostics, 2025).

“Also recorded” adds a separate entry of the source.

One assay relates to mouse EpiSC. The experiment in a line: Peptide binding by flow cytometry (6-FAM fluorescence). In kind it is cell-based. The following applies: EpiSC from hearts 5 days after MI, 5 µg peptide, 30 min, 37°C, 6-FAM MFI, n = 3 hearts. The protocol: (§1) To study the in vitro binding of 6-FAM-conjugated peptides (see above) we used the following cells: mouse EpiSC and cardiac fibroblasts prepared as described above, normal human dermal fibroblasts (NHDF) from juvenile foreskin, and human monocytes (THP-1). In addition, we used primary human cardiac fibroblasts which were prepared by outgrowth culture technique from a heart sample of a patient with terminal heart failure undergoing orthotopic heart transplant surgery, kindly provided by the Cardiac Surgery Department of the University Hospital Düsseldorf, Düsseldorf, Germany. A tissue sample weighing about ~5 g was removed from the failing heart's apex and placed in cooled BIOPS buffer to be divided into tiny pieces for subsequent culture to allow cell outgrowth in a 6‑well plate with DMEM (low glucose), 20% FBS, and 1% penicillin-streptomycin. The medium was replaced every 2 days and biopsy pieces were discarded after 5 days. After 14 days, cells reached a confluence of about 80% and were then passed to T75 cell culture flasks.
(§2) The binding assay was performed as follows: Cells were detached with PBS-EDTA (5 mM) for 10 min at 37°C and centrifuged at 500 × g for 5 min. Afterwards, 5 µg of synthesized peptide (see above) was added to 800 µL (0.5 x 10^6 cells) of the cell suspension and incubated for 30 min at 37°C. To control the specific targeting of the EP9 peptide, scrambled and mutated peptides were used as negative controls. Subsequently, 200 µL of the cell suspension were washed in 2 mL MACS buffer (2 % FBS and 1 mM EDTA in PBS) and centrifuged at 500 × g for 5 min and the supernatant was discarded. One additional washing step was performed by resuspending the cell pellet in 200 µL of MACS buffer and centrifugation at 500 × g for 5 min. After discarding the supernatant, the cell pellet was resuspended in 200 µL of 4′6-diamidino-2-phenylindole dichlorhydrate (DAPI) (Merck, Darmstadt, Germany) (1 µg/mL) to allow discrimination of dead cells. Flow cytometric analysis was performed using a BD FACS Canto II flow cytometer (BD Biosciences, Franklin Lakes, NJ, USA).
On the technique in general: In flow cytometry, cells or beads pass a laser one at a time.

In a further assay the test system is human monocytes (THP1). The description is as above. The following applies: 30 min, 37°C, 6-FAM MFI, n = 3 replicates. In kind it is cell-based. The protocol: as §1, §2
Assay [1] has as its system primary human cardiac fibroblasts. The assay is described as above. Format: cell-based. The note with it: outgrowth culture, patient with terminal heart failure, 30 min, 37°C, 6-FAM MFI, n = 2 replicates. The protocol:
as §1, §2

In assay [2] the test system is rat epicardial stromal cells (EpiSC). The following applies: cultured EpiSC from infarcted rat hearts; cited from earlier work. The source says: Using bacterial phage display screening, our previous work identified five small peptides that bound to cultured EpiSC, isolated from infarcted rat hearts, with high affinity. […] In the present study, we first aimed to assess the potential of EP9 for in vivo imaging of epicardial and myocardial stromal cells (fibroblasts) in the post-MI mouse heart. To this end, we coupled EP9 to a ^19F-containing PFC-NE (EP9-PFC-NE), designed for the in vivo labeling of cardiac cells (Figure 1). At 5 days post-MI (50 min ischemia/reperfusion), 150 µL of EP9-PFC-NE were injected into the tail vein of infarcted mice. PFC-NE coupl ... || page 3: Figure S2. Binding of peptide EP9 in comparison to control peptides to mouse cardiac fibroblasts and human monocytes (THP1). The binding of peptide EP9 in comparison to EP9-derived scrambled and mutated (MUT) peptides (see Table S1), as well as a negative control peptide (Negative) with low affinity to cardiac stromal cells (as previously assessed: peptide EP50), was evaluated by flow cytometry after 30 min of incubation in vitro. 6-FAM fluorescence signal of the peptides at the surface of mouse cardiac fibroblasts isolated from hearts 5 days after MI (n = 3 hearts) and human mono ...

Consider “Ac-KLMLPRPGGGKC-NH2 [EP9, 7-amino acid peptide KLMLPRP with glycine spacer GGGK(FAM)C, from phage display on rat EpiSC]”, for which the “binding to cultured mouse EpiSC” value in the assay on mouse EpiSC was “superior binding”. Also, in the assay with human monocytes (THP1), the “binding to human monocytes (THP1)” value was “no discernible binding; also recorded: only negligible binding”. Also, the “binding to primary human cardiac fibroblasts” value in assay [1] is “high binding”. The “binding affinity to rat EpiSC” value in assay [2] is “high binding affinity; also recorded: highest affinity and specificity”.
